# Assay results as given in PMC8476755 (Frontiers in Chemistry, 2021).
# Numbering of substitutions follows the chain as printed.
# How the values were obtained:
# BGT1 [1] = target: T1, BGT1 (Homo sapiens, UniProt P48065); test: [3H]GABA uptake assay, single concentration screening; type: cell-based; conditions: read-out: Percentage inhibition of [3H]GABA uptake at BGT1, 100 µM test compound; n = 2
# T1 construct: expressed in transfected cells
# T1 sequence (P48065 1-614): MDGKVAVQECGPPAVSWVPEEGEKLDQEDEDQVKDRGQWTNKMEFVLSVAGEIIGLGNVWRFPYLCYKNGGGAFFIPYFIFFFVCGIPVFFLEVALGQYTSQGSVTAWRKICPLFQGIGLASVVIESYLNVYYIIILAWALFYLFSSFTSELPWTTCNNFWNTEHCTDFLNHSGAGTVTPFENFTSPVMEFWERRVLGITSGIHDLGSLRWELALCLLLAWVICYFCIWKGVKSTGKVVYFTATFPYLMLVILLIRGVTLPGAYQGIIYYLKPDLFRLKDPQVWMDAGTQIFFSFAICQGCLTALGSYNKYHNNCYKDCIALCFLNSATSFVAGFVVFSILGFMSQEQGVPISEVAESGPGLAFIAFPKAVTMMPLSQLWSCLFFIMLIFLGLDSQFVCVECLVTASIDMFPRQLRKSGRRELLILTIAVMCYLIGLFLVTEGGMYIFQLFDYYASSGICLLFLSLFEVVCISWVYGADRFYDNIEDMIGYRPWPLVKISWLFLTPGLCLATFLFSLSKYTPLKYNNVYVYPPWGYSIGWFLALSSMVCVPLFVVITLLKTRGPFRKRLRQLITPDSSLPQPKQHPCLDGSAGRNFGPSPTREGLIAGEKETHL
# Description: (§1) Based on this finding, only 2 and bicyclo-GABA were further investigated pharmacologically.
# (§2) (D–E) Gaddum-Schild analysis of bicyclo-GABA, yielding a Schild slope of 1.02 indicative of competitive inhibition with a calculated K B of 0.47 µM (n = 4). (F) Characterization of bicyclo-GABA and 2 at α1β2γ2 GABAA receptors by use of the FMP assay. […] Data are presented as means ± S.E.M.
# Briefly, cells were seeded in white 96-well plates (White Opaque Tissue Culture (TC) plated 96-well Microplate) pre-coated with PDL. Medium was removed on the following day and cells washed with 100 µL/well assay buffer (HBSS supplemented with 20 mM HEPES, 1 mM CaCl2 and 1 mM MgCl2, pH 7.4). […] The cells were washed 3 times with 100 µL/well ice-cold assay buffer, 150 µL/well MicroScint™20 was subsequently added before the plate was shaken for at least 1 h. The plate was counted in a Packard TopCounter microplate scintillation counter (PerkinElmer) for 3 min per well. Typical counts per minute for the different GATs were in the range of: wt hBGT1 (100–4,000), BGT1 Q299 (100–1,000), hBGT E52Y (150–500), BGT1 E52A (150–8,000), BGT1 E52A + Q299L (150–500), wt GAT3 (200–8,000), GAT3 L314Q (100–1,500), wt GAT1 (100–10,000) and wt GAT2 (150–7,500). […] Data presented is the pooled data of at least three independent experiments with three technical replicates if not stated otherwise in figure legends. […]
# BGT1 [2] = test system: BGT1; parameters: method as in Kobayashi et al., 2014; conditions: ref Kobayashi et al., 2014, cited from earlier work
# [3] = test system: four human GABA transporters (GATs); test: [3H]GABA uptake assay, single concentration screening at the four human GATs; type: cell-based; conditions: 100 µM test compound, n = 2
# Description: as §1, §2
# (§3) Briefly, cells were seeded in white 96-well plates (White Opaque Tissue Culture (TC) plated 96-well Microplate) pre-coated with PDL. Medium was removed on the following day and cells washed with 100 µL/well assay buffer (HBSS supplemented with 20 mM HEPES, 1 mM CaCl2 and 1 mM MgCl2, pH 7.4). […] The cells were washed 3 times with 100 µL/well ice-cold assay buffer, 150 µL/well MicroScint™20 was subsequently added before the plate was shaken for at least 1 h. The plate was counted in a Packard TopCounter microplate scintillation counter (PerkinElmer) for 3 min per well. Typical counts per minute for the different GATs were in the range of: wt hBGT1 (100–4,000), BGT1 Q299 (100–1,000), hBGT E52Y (150–500), BGT1 E52A (150–8,000), BGT1 E52A + Q299L (150–500), wt GAT3 (200–8,000), GAT3 L314Q (100–1,500), wt GAT1 (100–10,000) and wt GAT2 (150–7,500). […] Data presented is the pooled data of at least three independent experiments with three technical replicates if not stated otherwise in figure legends. Concentration–response curves were fitted by non-linear regression to the sigmoidal concentration-response model with GraphPad Prism (version 9.0.0, GraphPad Software, San Diego, CA, United States) as described ([Lie et al., 2020]).
# BGT1 E52A = target: T2, BGT1 E52A (Homo sapiens, UniProt P48065, E52A); test: [3H]GABA uptake assay, transient expression in tsA201 cells; type: cell-based; conditions: BGT1 E52A vs BGT1 wt
# T2 construct: expressed in transfected cells; host or cells: tsA201 (transformed HEK293), transient
# T2 sequence (P48065 1-614 E52A): T1 sequence (P48065 1-614) with E52A
# Description: The residue Q299 in human BGT1 corresponds to leucine in all other GATs (human, rat, mouse), while E52 corresponds to tyrosine in GAT1 (human, rat, mouse) but is conserved among GAT2, GAT3 and BGT1 (human, rat, mouse) (Figure 6A) ([Kickinger et al., 2019]).
# (§4) The tsA201 cell line (a transformed HEK293 cell line), the Flp-In CHO cell lines stably expressing human (h) GATs and the HEK293 cell line stably expressing human α1β2γ2 GABAA receptors have been described previously and were cultured accordingly ([Al-Khawaja et al., 2014]; [Falk-Petersen et al., 2020]). The tsA201 cell line used for transient expression of hGATs was transfected with DNA constructs (8 μg per 10 cm plate) using 40 μL PolyFect transfection reagent according to the manufacturer’s protocol (Qiagen).
# as §3, with “well.” for “well. Typical counts per minute for the different GATs were in the range of: wt hBGT1 (100–4,000), BGT1 Q299 (100–1,000), hBGT E52Y (150–500), BGT1 E52A (150–8,000), BGT1 E52A + Q299L (150–500), wt GAT3 (200–8,000), GAT3 L314Q (100–1,500), wt GAT1 (100–10,000) and wt GAT2 (150–7,500).”
# GAT3 L314Q = target: T3, GAT3 L314Q (Homo sapiens, UniProt P48066, L314Q); test: as above; type: cell-based; conditions: GAT3 L314Q, tsA201 cells; read-out: pIC50 ± S.E.M. (converted)
# T3 construct: expressed in transfected cells; host or cells: tsA201 (transformed HEK293), transient
# T3 sequence (P48066 1-632 L314Q): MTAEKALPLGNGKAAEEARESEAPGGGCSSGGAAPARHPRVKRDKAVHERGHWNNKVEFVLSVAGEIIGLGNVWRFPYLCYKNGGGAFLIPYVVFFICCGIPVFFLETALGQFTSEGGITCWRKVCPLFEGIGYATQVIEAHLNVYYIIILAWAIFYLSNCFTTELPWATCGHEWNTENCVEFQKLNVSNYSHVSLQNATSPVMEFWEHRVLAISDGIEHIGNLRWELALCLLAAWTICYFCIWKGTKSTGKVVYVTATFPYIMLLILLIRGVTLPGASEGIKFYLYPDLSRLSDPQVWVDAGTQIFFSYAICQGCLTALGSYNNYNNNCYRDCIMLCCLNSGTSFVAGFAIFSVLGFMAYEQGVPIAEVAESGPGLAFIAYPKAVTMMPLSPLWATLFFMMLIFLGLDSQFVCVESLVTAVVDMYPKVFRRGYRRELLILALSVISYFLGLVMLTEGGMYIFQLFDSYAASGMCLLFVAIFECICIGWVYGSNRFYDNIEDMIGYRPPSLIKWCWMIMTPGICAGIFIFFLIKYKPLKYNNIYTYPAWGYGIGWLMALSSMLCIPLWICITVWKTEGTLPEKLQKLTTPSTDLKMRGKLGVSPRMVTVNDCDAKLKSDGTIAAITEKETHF
# Text: According to the docking and MD results, the sidechains of Q299 and E52 were identified to form crucial interactions with the protonated nitrogen of both compounds. The residue Q299 in human BGT1 corresponds to leucine in all other GATs (human, rat, mouse), while E52 corresponds to tyrosine in GAT1 (human, rat, mouse) but is conserved among GAT2, GAT3 and BGT1 (human, rat, mouse) (Figure 6A) ([Kickinger et al., 2019]). Thus, we engineered the corresponding mutants Q299L and E52Y in human BGT1 and predicted that the introduction of these mutations would lead to decreased activity of both bicyclo-GABA and 2 due to the loss of essential hydrogen bond interactions. Furthermore, we wanted to test the double mutant E52Y + Q299L. However, in a previous study this mutant was proven non-functional ([Kickinger et al., 2020]). Instead, we generated the double mutant E52A + Q299L as well as the single mutant E52A. For these mutants we predicted decreased activity. Lastly, the reciprocal mutation to BGT1 Q299L was created in GAT3 (L314Q), ideally expecting a gain-of-function.
# FIGURE 6 (A) Pocket alignment of the orthosteric site of the four GAT subtypes colored according to the default ClustalX color scheme ([Larkin et al., 2007]). The pocket was defined as all corresponding GAT residues (15 in total) that are within a distance of 4.5 Å of the co-crystallized ligand leucine in the homologous LeuT crystal structure (PDB ID 2A65) ([Yamashita et al., 2005]) according to the alignment by Kickinger et al. ([Kickinger et al., 2019]). The mutated residues in BGT1 and the corresponding residues in GAT1-3 are indicated by a red box. The numbering of all residues within the orthosteric pocket can be found in the Supplementary Table S1.
# as §4, with “(Qiagen). All DNA constructs used have been described previously: wt hBGT1, wt GAT3 ([Kvist et al., 2009]), BGT1 Q299, GAT3 L314Q ([Jørgensen et al., 2017]), hBGT E52Y, BGT1 E52A and BGT1 E52A + Q299L ([Kickinger et al., 2020]).” for “(Qiagen).”
# as §3
smiles,measurement,setting,value
CC1(CC(=O)O)CC1N (centres unmarked) [4a],inhibition at 100 µM,BGT1 [1],68%
"NC1CC1CC(=O)O [compound 1, (2S,3R)-4-amino-3,4-methanobutyric acid]",Less potent than bicyclo-GABA,BGT1 [2],9 times
same,Higher activity for BGT1 than GAT3,BGT1 [2]; subtype-selectivity BGT1 vs GAT3,three times higher activity
CCC1(CC(=O)O)CC1N (centres unmarked) [4b],Percentage inhibition of [3H]GABA uptake at any of the GATs,[3],< 15%
"NCCCC(=O)O [GABA, γ-aminobutyric acid]",Increase in activity compared to wildtype,BGT1 E52A,not significantly altered
same,IC50,GAT3 L314Q,5.01 µM
NC1CC1(CC(=O)O)c1ccccc1 (centres unmarked) [4c],Percentage inhibition of [3H]GABA uptake at any of the GATs,[3],< 15%
CN(C)[C@@]12CC[C@H](C(=O)O)[C@@H]1C2 [compound 3],Percentage inhibition of [3H]GABA uptake at any of the GATs,[3],< 15%
